{"source": "paper PMC6627374", "about": "“Effects of the Pentapeptide P33 on Memory and Synaptic Plasticity in APP/PS1 Transgenic Mice: A Novel Mechanism Presenting the Protein Fe65 as a Target” (International Journal of Molecular Sciences, 2019)", "assay_type_in_all_cases": "in vivo, mouse", "key": {"Fe65": {"tested_on": "Fe65", "assay": "Western blot, Fe65 level in brain", "settings": "APP/PS1 mice; 5 mg∙kg^−1 i.p., five days per week, six months; HC and CTX", "procedure": "(§1) For this study, three-month-old male and female WT and APP/PS1 mice (n = 37) were used. Four groups were defined: WT-vehicle (physiological saline) (male n = 4; female n = 6), WT-P33 (male n = 6; female n = 5), APP/PS1-vehicle (male n = 3; female n = 5), and APP/PS1-P33 (male n = 6; female n = 2). Animals were subjected to intraperitoneal (i.p.) injections of P33 (5 mg∙kg^−1) for five days per week, over a course of six months. The mice were kept in groups under constant temperature (23 ± 0.5 °C), lighting (12-h/12-h light/dark cycle, lights on at 7:00 a.m.), and humidity (~50%). Standard mouse chow and tap water were supplied ad libitum. All behavioral experiments were performed in the light period. Handling was done daily at the same time.\n(§2) Nine-month-old mice (three animals per group) were euthanized via cervical dislocation. […] To quantify the level of Aβ in the mice, we used a sandwich ELISA Kit (Innotest Amyloid-[…]) from Innogenetics (Gent, Belgium), following the instructions of the manufacturer. The absorbance values were measured at 450 nm on a 96-well plate reader (NOVOstar OPTIMA, BMG Labtech, Offenburg, Germany). […]\n(§3) The results of spine density and immunohistochemistry experiments were calculated with one-way ANOVA followed by Fisher’s LSD post hoc tests. […] Data were analyzed with SPSS (IBM SPSS Statistics 24), and were expressed as the mean ± standard error of the mean (SEM). […]"}, "pT^668-APP": {"tested_on": "pT^668-APP", "assay": "Western blot, pT^668-APP level in brain", "settings": "5 mg∙kg^−1 i.p., five days per week, six months; HC and CTX", "procedure": "as §1, §2, §3"}, "PSD95": {"tested_on": "PSD95", "assay": "Western blot, PSD95 level", "settings": "APP/PS1 mice; 5 mg∙kg^−1 i.p., five days per week, six months", "procedure": "as §1, with “Handling was done daily at the same time.” left out\n(§4) Protein samples, identically prepared as for ELISA, (20 μg/lane) were separated on a 15% SDS-polyacrylamide gel (80 V, 20 min at RT; than 130 V, 60 min at RT) or on a 4–12% NuPAGE® Bis-Tris Gel (Thermo Fischer Scientific, Waltham, MA, USA, 200V, 30 min at RT) and transferred to a nitrocellulose membrane (Whatman, Maidstone, UK, 450 mA, 90 min at 4 °C). […] Membranes were scanned with a Bio-Rad Molecular Imager® ChemiDoc™ XRS+Imaging System (Bio-Rad Laboratories, Hercules, CA, USA) and evaluated with the Image Lab 4.0 software.\n(§5) The results of spine density and immunohistochemistry experiments were calculated with one-way ANOVA followed by Fisher’s LSD post hoc tests. […]"}, "synaptophysin (SYN)": {"tested_on": "synaptophysin (SYN)", "assay": "Western blot, synaptophysin (SYN) level", "settings": "four groups WT/APP/PS1, vehicle/P33; 5 mg∙kg^−1 i.p., six months", "procedure": "as §1, with “Handling was done daily at the same time.” left out\nas §4, §5"}}, "note": "Where a SMILES comes first, the peptide text is derived from it."}
{"smiles": "C[C@@H](N)C(=O)N1CCC[C@@H]1C(=O)N[C@H](C)C(=O)N1CCC[C@@H]1C(=O)N[C@H](CCC(=O)O)C(N)=O", "note": "[P33] (HELM PEPTIDE1{[dA].[dP].[dA].[dP].[dE].[am]}$$$$V2.0)", "values": [{"measurement": "Fe65 level, effect of P33 (in words)", "setting": "Fe65", "result": "could not be considerably changed by the treatment with P33"}, {"measurement": "pT^668-APP level, effect of P33 (in words)", "setting": "pT^668-APP", "result": "had no significant effect on the pT^668-APP level"}, {"measurement": "PSD95 level, effect of P33 (in words)", "setting": "PSD95", "result": "could be restored by applying P33 on APP/PS1 mice"}, {"measurement": "SYN level, effect (in words)", "setting": "synaptophysin (SYN)", "result": "significant differences were not found between the groups"}]}
